Among the test systems are COLO 205; EKVX; HOP-92; CAKI-1; LOX IMVI; UO-31; NCI-H522; HCT-116; OVCAR-8; NCI-H226; NCI/ADR-RES; ACHN; BT-549; SNB-75; NCI-H23; MDA-MB-435; SF-539; T47D; NCI-H460; HCC 2998.
Holding throughout (experiment): NCI anticancer screen, dose series, 48 h

Structures are written as SMILES.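 Results reflect a 48-hour exposure of cells in 96-well plates to compound at five concentrations. At the GI50, growth is halved.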 Calls of active or inactive are those of the source. No stated cut-off is given here; in the data, active = GI50 up to about 1.1 µM and inactive = higher. Where only a bound is given, the exact number is not on record here.

Data on 11 molecules can be found in ChEMBL document CHEMBL1201862, “PubChem BioAssay data set” (2004).

In the case of `COc1ccc(N2C(=O)CS(=O)(=O)C2c2cccc(Oc3ccccc3)c2)cc1` (centres undefined), the GI50 with COLO 205 is 3.29 µM (inactive); with EKVX it was 9.91 µM (inactive); in the assay on HOP-92, 7.52 µM (inactive); with CAKI-1, 2.72 µM (inactive); in the assay with LOX IMVI, 4.4 µM (inactive); in the assay on UO-31 it was 7.18 µM (inactive). For the same molecule, the GI50 in the assay on NCI-H522 was 2.62 µM (inactive); in the assay with HCT-116 it was 2.17 µM (inactive); in the assay on OVCAR-8, 4.08 µM (inactive); with NCI-H226 it was 4.79 µM (inactive); in the assay with NCI/ADR-RES it was 2.89 µM (inactive); with ACHN, 4.92 µM (inactive). Also, the GI50 with BT-549 is 7.74 µM (inactive); in the assay on SNB-75 it was 4.28 µM (inactive); in the assay on NCI-H23 it was 4.99 µM (inactive); in the assay with MDA-MB-435, 0.959 µM (active); with SF-539, 3.54 µM (inactive); in the assay with T47D it was 7.45 µM (inactive). For the same molecule, in the assay with NCI-H460, the GI50 was 2.61 µM (inactive).
Regarding `C=CC(c1ccccc1)C1(O)c2cccc(O)c2C(=O)c2c(O)cccc21` (centres undefined), the GI50 in the assay on EKVX was 16.3 µM (inactive); in the assay on HOP-92, 15.9 µM (inactive); with CAKI-1, 16.7 µM (inactive); in the assay with LOX IMVI it was 16.4 µM (inactive); with UO-31, 19.8 µM (inactive); in the assay with NCI-H522 it was 11.7 µM (inactive). For the same molecule, the GI50 in the assay with HCT-116 was 11.5 µM (inactive); in the assay on OVCAR-8 it was 19.7 µM (inactive); in the assay on NCI-H226, 19.4 µM (inactive); with NCI/ADR-RES it was 11.5 µM (inactive); with ACHN, 17.8 µM (inactive); in the assay with BT-549 it was 16.7 µM (inactive). The GI50 with SNB-75 was 20.5 µM (inactive); in the assay on NCI-H23, 13.4 µM (inactive); in the assay on MDA-MB-435 it was 4.01 µM (inactive); in the assay with SF-539 it was 29.3 µM (inactive); in the assay on T47D, 16.9 µM (inactive); in the assay on NCI-H460 it was 17.3 µM (inactive). In addition, the GI50 with HCC 2998 was 10.8 µM (inactive).
As for `CCN1C2=NCCN2S(=O)(=O)c2ccccc21`, the GI50 with COLO 205, in the assay on EKVX, with HOP-92, with CAKI-1, in the assay with LOX IMVI and in the assay with UO-31 was > 100 µM (inactive) throughout. The GI50 in the assay with NCI-H522 was 59 µM (inactive); in the assay with HCT-116, > 100 µM (inactive); with OVCAR-8, > 100 µM (inactive); in the assay on NCI-H226, > 100 µM (inactive); in the assay with NCI/ADR-RES it was > 100 µM (inactive); in the assay with ACHN it was > 100 µM (inactive). Also, the GI50 in the assay on BT-549, in the assay with NCI-H23, with MDA-MB-435, in the assay on SF-539, in the assay on T47D and in the assay with NCI-H460 was > 100 µM (inactive) each time. Also, the GI50 in the assay with HCC 2998 is > 100 µM (inactive).
For the molecule `CCSCC(N)C(=O)O` (centres undefined), the GI50 in the assay on COLO 205 is > 100 µM (inactive); in the assay on EKVX it was > 100 µM (inactive); in the assay on HOP-92, 0.0337 µM (active); in the assay on CAKI-1, > 100 µM (inactive); with LOX IMVI, > 100 µM (inactive); in the assay with UO-31, > 100 µM (inactive). Also, the GI50 in the assay with NCI-H522, with HCT-116, in the assay on OVCAR-8, in the assay with NCI-H226, in the assay on NCI/ADR-RES and in the assay on ACHN was > 100 µM (inactive) throughout. The GI50 with BT-549, in the assay with SNB-75, with NCI-H23, in the assay on MDA-MB-435, in the assay with T47D and in the assay on NCI-H460 was > 100 µM (inactive) throughout.
On to `O=C1CCSSCCC(=O)Nc2ccccc2N1`, for which the GI50 with COLO 205, with EKVX, in the assay with HOP-92, in the assay with CAKI-1, in the assay on LOX IMVI and in the assay on UO-31 was > 100 µM (inactive) throughout. Further, the GI50 in the assay with NCI-H522, in the assay with HCT-116, with OVCAR-8, in the assay on NCI-H226, in the assay with NCI/ADR-RES and in the assay on ACHN was > 100 µM (inactive) in each case. Further, the GI50 with BT-549, with NCI-H23, in the assay on MDA-MB-435, in the assay with SF-539, in the assay on T47D and with NCI-H460 was > 100 µM (inactive) throughout.
Take `O=C(O)C1C(C(=O)O)C(C(=O)O)C1C(=O)O` (centres undefined): the GI50 in the assay with COLO 205, with EKVX, in the assay with HOP-92, in the assay with CAKI-1, with LOX IMVI and in the assay on UO-31 was > 100 µM (inactive) each time. The GI50 with NCI-H522, with HCT-116, in the assay with OVCAR-8, with NCI-H226, in the assay with NCI/ADR-RES and in the assay with ACHN was > 100 µM (inactive) in each case. Also, the GI50 in the assay on BT-549, in the assay with SNB-75, in the assay with NCI-H23, in the assay on MDA-MB-435, with SF-539 and with T47D was > 100 µM (inactive) throughout. In addition, the GI50 in the assay on NCI-H460 was > 100 µM (inactive).
As for `N=C(N)NS(=O)(=O)c1ccc(/N=N/c2c(O)c(C(=O)O)cc3ccccc23)cc1`, the GI50 with COLO 205, with EKVX, with HOP-92, in the assay with CAKI-1, in the assay with UO-31 and in the assay on NCI-H522 was > 100 µM (inactive) in each case. The GI50 with HCT-116, in the assay on OVCAR-8, with NCI-H226, in the assay with NCI/ADR-RES, in the assay with ACHN and with BT-549 was > 100 µM (inactive) in each case. For the same molecule, the GI50 in the assay with SNB-75, in the assay on NCI-H23, with MDA-MB-435, in the assay with SF-539, with T47D and with NCI-H460 was > 100 µM (inactive) in each case. Further, the GI50 with HCC 2998 is > 100 µM (inactive).
For `O=C1/C(=C\c2ccco2)Oc2ccccc21`, the GI50 was > 100 µM (inactive) in the assay on COLO 205; 42.9 µM (inactive) with EKVX; > 100 µM (inactive) with HOP-92; > 100 µM (inactive) with CAKI-1; > 100 µM (inactive) with LOX IMVI; 76.2 µM (inactive) in the assay with UO-31. Also, the GI50 in the assay with NCI-H522, in the assay with HCT-116, in the assay with OVCAR-8, with NCI-H226, in the assay with NCI/ADR-RES and in the assay on ACHN was > 100 µM (inactive) each time. Moreover, the GI50 in the assay on BT-549 is > 100 µM (inactive); with SNB-75, > 100 µM (inactive); with NCI-H23, > 100 µM (inactive); in the assay on MDA-MB-435, > 100 µM (inactive); in the assay on T47D it was 72.3 µM (inactive); in the assay on NCI-H460, > 100 µM (inactive). The GI50 in the assay on HCC 2998 is > 100 µM (inactive).
As for `CC(C)(C)/C(O)=C\c1nc2ccc(C(F)(F)F)cc2[nH]c1=O`, the GI50 in the assay on COLO 205, with EKVX, in the assay with HOP-92, in the assay on CAKI-1, in the assay on LOX IMVI and with UO-31 was > 100 µM (inactive) each time. In addition, the GI50 in the assay on NCI-H522, in the assay on HCT-116, with OVCAR-8, in the assay with NCI-H226, in the assay with NCI/ADR-RES and with ACHN was > 100 µM (inactive) each time. For the same molecule, the GI50 with BT-549, in the assay with SNB-75, in the assay on NCI-H23, with MDA-MB-435 and in the assay on T47D was > 100 µM (inactive) throughout.
Turning to `O=C1C[C@@H](c2ccccc2)O[C@@H](c2ccccc2)C1`, the GI50 is 97.5 µM (inactive) with COLO 205; > 100 µM (inactive) in the assay on EKVX; > 100 µM (inactive) in the assay with HOP-92; > 100 µM (inactive) in the assay with CAKI-1; > 100 µM (inactive) in the assay on LOX IMVI; > 100 µM (inactive) in the assay on UO-31. In addition, the GI50 in the assay on HCT-116, in the assay with OVCAR-8, in the assay with NCI-H226, in the assay on NCI/ADR-RES, in the assay with BT-549 and in the assay with SNB-75 was > 100 µM (inactive) each time. The GI50 in the assay on NCI-H23, in the assay with MDA-MB-435, in the assay with SF-539, in the assay on T47D, in the assay on NCI-H460 and in the assay with HCC 2998 was > 100 µM (inactive) in each case.
As to `CN/C(N)=N/N=C1/C(=O)Nc2ccccc21`, the GI50 in the assay with COLO 205, with EKVX, in the assay with HOP-92, with CAKI-1, with LOX IMVI and in the assay on UO-31 was > 100 µM (inactive) each time. Moreover, the GI50 in the assay with NCI-H522, in the assay on HCT-116, with OVCAR-8, in the assay on NCI-H226, in the assay on NCI/ADR-RES and in the assay with ACHN was > 100 µM (inactive) each time. Moreover, the GI50 in the assay on BT-549, with SNB-75, in the assay on NCI-H23, in the assay on MDA-MB-435, in the assay on T47D and with NCI-H460 was > 100 µM (inactive) each time. In addition, in the assay with HCC 2998, the GI50 was > 100 µM (inactive).
